Results taken from US20150025012A1, “METHODS AND COMPOSITIONS FOR IDENTIFICATION, ASSESSMENT AND TREATMENT OF CANCERS ASSOCIATED WITH HEDGEHOG SIGNALING” (Infinity Pharmaceuticals, Inc., priority 2010, published 2015).

Assays:
[1] = test system: preclinical in vivo tumor models; details: medulloblastoma, SCLC, NSCLC, skin, head and neck, ovarian cancer; cited from earlier work
Gli1 = assay: Nuclear Gli1 immunohistochemical staining of BCC lesion biopsies pre- and post-treatment; type: in vivo, human
Procedure: For immunohistochemical (IHC) detection, tissue samples can be fixed in 10% neutral buffered formalin at room temperature before processing for paraffin embedding. The length of fixation depends on the size of the tissue, for example, overnight but not more than 22-24 hours for large tissues; and no more than 2 hours for small core or needle biopsies. The fixed tissues are sectioned to 7 microns […] and mounted on Superfrost Microscope™ slides (Fisher Scientific).
Prior to incubation with anti-Gli1 antibody, antigen retrieval can be performed to break the protein cross-links formed by formalin fixation and thereby reveal hidden antigens. Antigen retrieval buffers with different buffer compositions and pH are commercially available, for example, CC1 (Tris/EDTA, pH 8.0; Ventana, Cat. No. 950-124); CC2 (citrate, pH 6.0; Ventana, Cat. No. 950-123); citrate buffer (pH 6.0; Invitrogen, Cat. No. 00-5000); Target Retrieval Solution (citrate, pH 6.1; Dako, Cat. No. S170084); Target Retrieval Solution (Tris/EDTA, pH 9.0; Dako, Cat. No. S236884); Diva Decloaker (citrate, pH 6.2; Biocare, Cat. No. DV2004 mM); and EDTA Decloaker (EDTA based, pH 8.5; Biocare, Cat. No. CB917 L).
Anti-Gli1 antibodies that can be used to detect nuclear Gli1 protein in tumor samples are commercially available. Exemplary anti-Gli1 antibodies include, e.g., rabbit polyclonal and monoclonal antibody from Cell Signaling Technology (Cat. Nos. 2553 and 3538, respectively); rabbit polyclonal antibody (H-300) from Santa Cruz Biotechnology (Cat. No. se-20687, described in Chung et al., J. Clin. Oncol. 2011; 29(10):1326-34); rabbit polyclonal antibody from Abcam (Cat. No. ab92611); rabbit polyclonal antibody from Abnova (Cat. No. PAB10214); rabbit polyclonal antibody from GenWay Biotech (Cat. No. 18-732-292074); rabbit polyclonal antibody from LifeSpan BioSciences (Cat. No. LS-C66529-50); rabbit polyclonal antibody from Novus Biologicals (Cat. No. NBP1-03294); mouse polyclonal antibody from ProSci (Cat. No. 49-519); goat polyclonal antibody from R&D Systems (Cat. No. AF3455); and rabbit polyclonal antibody from United States Biological (Cat. No. G2035-51A).
Detection of tumor nuclear Gli1 staining in basal cell carcinomas (BCC) was performed using the protocols described in Example 9. FIGS. 23C and 23D show nuclear staining of Gli1 in biopsy samples of a BCC lesion pre- and 22-day post-treatment of IPI-926.
The definition of H-score is known in the art, e.g., as described in Detre, S. et al. (1995) J. Clin. Pathol. […] The intensity in the malignant cell nuclei can be scored as 0, 1, 2, or 3. […] The total number of cells in each field and the number of cells stained at each intensity are counted. The average percentage positive can be calculated and analyzed as described in Detre, S. et al. (1995) supra.

Gli1 mRNA = assay: Real-time RT-PCR of Gli1 mRNA in laser capture microdissected BCC tumor samples; type: in vivo, human; details: post-treatment versus pre-treatment, BCC patients
Procedure: As a comparison, real-time RT-PCR was performed using RNA extracted from Laser Capture Microdissected tumor samples from BCC patients. The ddCt method was used to calculate the real-time PCR results (Livak K. J. et al. (2001) Methods. 25(4):402-8). FIG. 27 is a bar graph depicting the quantitation of Gli1 mRNA pre- and post treatment with IPI-926. Although a decrease level of Gli1 mRNA is detected post-treatment, the level of reduction is not as pronounced as that detected by evaluating nuclear localization of Gli1.

[2] = post treatment versus pre treatment BCC sample

Question: Which “tumor growth in preclinical in vivo models” value [1] does the source give for `CC1=C2C[C@H]3[C@@H](CC[C@@H]4C[C@H](NS(C)(=O)=O)CC[C@@]43C)[C@@H]2CC[C@@]2(C1)O[C@@H]1C[C@H](C)CN[C@H]1[C@H]2C` [IPI-926] here?
Answer: tumor growth inhibition

Question: What about the “overall reduction of Gli1 protein staining” value (Gli1; [2]) of the same compound?
Answer: 57%

Question: And the “reduction in nuclear Gli1 stain” value (Gli1; [2])?
Answer: 60%

Question: What about the “nuclei stained positive for Gli1” value (Gli1; post-treatment (27% before treatment)) of the same compound?
Answer: 16%

Question: And the “H-score of Gli1 staining” value (Gli1; post-treatment (100 before treatment))?
Answer: 57

Question: What about the “level of Gli1 mRNA” value (Gli1 mRNA) of the same compound?
Answer: decrease
